Results published in patent EP1263420B1 (priority 2000, dated 2001).

Key:
RAR α = experiment: Western blot of rat lung tissue after inhaled 13-cis RA; assay type: in vivo; settings: for upregulating expression of lung tissue RAR (α): daily deposited dose of 6.4mg/kg/day
Method: (§1) Rats (n=97) (Sprague-Dawley from Charles River) were divided into five experimental groups and were given varying amounts of 13-cis RA by inhalation. The experimental groups were as follows (Table 4) :1.Vehicle (10/9 mix of PEG 300 and Ethanol with 0.5% of ascorbic acid and 0.5% phosphatidyl choline) control, day 1: rats (19) inhaled vehicle for 2 hr for one day; 2. High dose 13-cis RA, day 1: rats (22) inhaled a solution containing 13-cis-RA at a concentration of 104µg/liter (projected daily inhaled dose 10mg/kg body weight) for 2 hr for one day; 3. High dose 13-cis RA, day 17: rats (22) inhaled the same solution as in 2 for 2 hr each day for 17 days; 4. Vehicle control, day 28: rats (16) inhaled vehicle as for group 1 for a period of 28 days; 5. Middle dose 13-cis RA, day 28: rats (18) inhaled a solution containing 13-cis-RA at a concentration of 31µg/liter (projected daily inhaled dose 3mg/kg body weight) for 2 hr for each of 28 days.
(§2) Male rats (n=23) (Sprague-Dawley from Charles River) were divided into six experimental groups and were given varying amounts of 13-cis RA through an inhalant apparatus once daily for different times each day for 14 days. The experimental groups were as follows (Table 1) :1.Vehicle control : rats (3) inhaled vehicle for 240 minutes; 2. Low dose 13-cis RA: rats (4) inhaled a solution containing 13-cis RA at a concentration of 62.2µg/liter (inhaled dose 115.0µg/kg body weight) in 5 minutes; 3. Low-Middle dose 13-cis RA : rats (4) inhaled a solution containing 13-cis RA at a concentration of 62.2µg/liter (inhaled dose 334.4µg/kg body weight) in 15 minutes; 4.Middle dose 13-cis RA: rats (4) inhaled a solution containing 13-cis RA at a concentration of 62.2µg/liter (inhaled dose 1012.3µg/kg body weight) in 45 minutes; 5. Middle-High dose 13-cis RA : rats (4) inhaled a solution containing 13-cis RA at a concentration of 62.2µg/liter (inhaled dose 2843.4µg/kg body weight) in 120 minutes; 6. High dose 13-cis RA : rats (4) inhaled a solution containing 13-cis RA at a concentration of 62.2µg/liter (inhaled dose 5935.6µg/kg body weight) in 240 minutes.
(§3) Polyclonal rabbit anti-mouse antibodies against RAR, and (SANTA CRUZ Biotechnology Inc., San Francisco, CA) were used. BM Chemiluminescense Western Blotting Kit (Mouse/Rabbit) was used (Boehringer Mannheim Corporation, Indianapolis) for the Westerns.
(§4) Tissues were collected, frozen in dry ice and kept at -70°C until used. 500mg aliquots were diced in small pieces and homogenized in 300µl of cold PBS, using the hand held homogenizer for 2~3 minutes. Sample and washes were centrifuged at 5000xg for 20 minutes. The pellet was suspended in 400 µl of ice-cold Buffer A [2µl 0.5M EDTA, 10µl 100mM EGTA, 50µl 100mM PMSF, 10µl 1M DTT, 10ml (10mM HEPES pH 7.9 + 10mM KCl)], and left at ice temperature for 15 minutes. 25 µl of 10% solution of NP-40 was added and samples were mixed in a vortex vigorously for 10 seconds. Samples were centrifuged at 14,000xg for 1 minute at 4°C and the pellet treated once more in this fashion (resuspended etc.). The supernatant was removed and 100µl of ice-cold Buffer C [4µl 0.5M EDTA, 20µl 100mM EGTA, 20µl 100mM PMSF, 2µl 1 M DTT, 2ml (20mM HEPES pH 7.9 + 0.4M NaCl)] was added. Pellets were resuspended by tapping gently on the bottom of the Eppendorf tubes. Samples were rocked vigorously in a bucket of ice on an orbital shaker for 30 minutes. Samples were centrifuged at 14,000 xg for 5 minutes at 4°C. Protein determination of supernatant was conducted by the Bradford method.
(§5) Samples were prepared by adding one part of the Sample Buffer to one part of the sample and mixing well. Samples were heated at 95°C for 5 minutes to induce denaturation. 5µl of Rainbow Standard and 5µl ofBiotinylated Molecular Marker were added to parallel wells. 20µg protein per sample was loaded in each lane. Electrophoresis was performed with voltage set at 125V for about 1 ~ 1.5 hours. Gel transfer was executed at 25V for 2 hours. […]

RAR β = experiment: as above; assay type: in vivo; settings: for upregulating expression of lung tissue RAR (β): daily deposited dose of 6.4mg/kg/day
Method: as §1, §2, §3, §4, §5

RAR γ = experiment: as above; assay type: in vivo; settings: for upregulating expression of lung tissue RAR (γ): daily deposited dose of 6.4mg/kg/day
Method: as §1, §2, §3, §4, §5

[1] = Body weight, mortality and toxicity of A/J mice exposed to isotretinoin aerosols; assay type: in vivo
Method: Mice were injected with one of three carcinogens and were exposed by inhalation in groups of 21 to three graded concentrations of isotretinoin or vehicle for 10 (urethane-treated mice) or 16 (NNK- and BaP-treated mice) weeks.
Male A/J mice (Jackson Laboratories) 6-8 weeks old were quarantined a minimum of 7 days. […] At 9-10 weeks of age, the mice were administered single 0.2 ml doses (20 mg urethane in saline, 0.6 mg of NNK in saline, or 2 mg of BaP in tricaprylin) by intraperitoneal injection. Daily 45-min exposures to isotretinoin aerosol or vehicle were started the next day.
Solutions were aerosolized using a Pari LC-plus nebulizer (Pari, Richmond, VA). Animals were exposed in nose-only exposure units designed to provide a fresh supply of the test atmosphere to each animal, independent from other animals. […] The units consisted of multi-tier modular sections, each tier containing eight exposure ports located peripherally around a central delivery plenum. During exposures, animals were restrained in unstoppered polycarbonate tubes (C&H Technologies, Westwood, NJ) through which a flow of aerosol, 350-500 ml/min per mouse, passed from the chamber. The tubes were tapered on one end to approximately fit the shape of the animal's head and the diameter of the cylindrical portion of the cone was such that the animals could not turn in the cones. Each cone was fastened to the inhalation chamber with the nose portion of the cone protruding through a gasket into the chamber, permitting the animal to breathe the test or control atmosphere emanating from within the central plenum.

TGase II = TGase II activity in cultured MCF-7 cells; assay type: cell-based, human
Method: MCF-7 cells were seeded at a density of 1.5 x 10^5 cells/ml medium (500ml DMEM + 56.2ml FBS + 5.6m1 AB/AM) in 6cm diameter dishes for 24 hours and treated with either DMSO, RA, or 13-cis RA at 10^-6 M and grown to confluence (about 72 hours). Cells were harvested and Transglutaminase II activity was measured as described below. Nebulizer solution, inhalation procedures, details of animal housing are described below.
Cultured cells were placed in 100 µl scraping buffer [A: 2800µl (400µl 0.5M Na-Phosphate, 500µl 0.01M EDTA, 100µl 1M DTT , 9ml PBS total 10ml) + B:700µl (10µl 20mg/ml PMSF 790µl PBS total 800µl)] for each dish. Cells were broken by a sonicator and kept in ice until used. TGase II assay was conducted as described below and previously {8217}.
Enzyme assay mixtures were prepared by adding 80µl of SUBSTRATE mixture (322.8µl H2O, 120µl 0.5M NaBorate, 60µl 0.01M EDTA, 60µl 0.1M CaCl2, 6µl 1M DTT, 240µl dimethyl casein, 30µl Triton X-100, 1.2µl [^3H]-Putrescine, 120µl Putrescine) to 20µl sample, 20µl scraping buffer for blank control , 20 µl (18µl scraping buffer + 2µl TGase II) for positive control. Samples were mixed in 15ml tubes, the tubes were shaken before putting them into a 28°C water bath for 30 minutes. Reactions were slowed down in an ice bath. 80µl of the incubation mixture was adsorbed onto paper disks. These were immediately dropped into cold 10% TCA (0.1% Putrescine) and washed with agitation for 7 minutes, followed by 2 additional washes with 5% TCA (0.05% putrescine) for 5~7 minutes, and once more with cold (-20°C) 95% ethanol for 5 minutes. Paper disks were dried and placed into 5ml Aquasol, and counted in a Liquid Scintillation Counter. Protein concentration determination was conducted by the Bradford method.

[2] = daily deposited dose of 1.9mg/kg/day, day 28

Question: Which “lung RAR (α) induced” value (RAR α; [2]) does the source give for `CC1=C(/C=C/C(C)=C/C=C/C(C)=C\C(=O)O)C(C)(C)CCC1` [13-cis RA, 13-cis-Retinoic Acid] here?
Answer: Its value is 4.7 fold.

Question: And the “upregulating expression of lung tissue RAR (α)” value (RAR α; day 1)?
Answer: The value was 3.4 fold.

Question: What about the “upregulating expression of lung tissue RAR (α)” value (RAR α; day 17) of the same molecule?
Answer: The value was 4.2 fold.

Question: And the “lung RAR (β) induced” value (RAR β; [2])?
Answer: The value was 8.0 fold.

Question: And the “upregulating expression of lung tissue RAR (β)” value (RAR β; day 1)?
Answer: The value was 7.2 fold.

Question: And the “upregulating expression of lung tissue RAR (β)” value (RAR β; day 17)?
Answer: Its value is 10.0 fold.

Question: And the “lung RAR (γ) induced” value (RAR γ; [2])?
Answer: Its value is 8.1 fold.

Question: And the “upregulating expression of lung tissue RAR (γ)” value (RAR γ; day 1)?
Answer: Its value is 9.7 fold.

Question: And the “upregulating expression of lung tissue RAR (γ)” value (RAR γ; day 17)?
Answer: The value was 12.9 fold.

Question: And the “tolerated until (mice began losing weight)” value ([1]; mid dose)?
Answer: The value was ~ 12 wks.

Question: And the “weights below those of vehicle controls” value ([1]; mid dose, NNK- and BaP-treated mice, end of exposure)?
Answer: The value was 11%.

Question: And the mortality ([1]; mouse, in vivo, inhaled or intranasal, 0.081 mg/kg, mid dose (2/63), read-out: mice died before the end of exposure)?
Answer: Its mortality is 3%.

Question: And the mortality at 336 h ([1]; mouse, in vivo, inhaled or intranasal, 2 mg/kg, high dose, daily exposures for the first two weeks, read-out: mice died)?
Answer: Its mortality at 336 h is about 35%.

Question: And the fold induction at 1 µM (TGase II; Homo sapiens, MCF7, 72 h, read-out: stimulating TGase II activity)?
Answer: The fold induction at 1 µM was 6.1.

Question: What about the “TGase II Activity” value (TGase II; MCF-7 cells, 10^-6 M, 72 hours, DMSO control 0.183) of the same molecule?
Answer: The value was 1.118 +/- 0.016 picomoles/µg protein/30 minutes.
